{
  "source": "paper PMC7669867",
  "about": "“Synthesis and initial screening of lactate dehydrogenase inhibitor activity of 1,3-benzodioxole derivatives” (Scientific Reports, 2020)",
  "key": {"[1]": {"molecular_target": "T1, CYP2C19 (Homo sapiens, UniProt P33261)", "T1 construct": "Pooled Human liver microsomes (Sigma-Aldrich; 0.25 mg/mL); tissue Sigma-Aldrich; host or cells: pooled human liver microsomes", "T1 sequence (P33261 whole entry)": "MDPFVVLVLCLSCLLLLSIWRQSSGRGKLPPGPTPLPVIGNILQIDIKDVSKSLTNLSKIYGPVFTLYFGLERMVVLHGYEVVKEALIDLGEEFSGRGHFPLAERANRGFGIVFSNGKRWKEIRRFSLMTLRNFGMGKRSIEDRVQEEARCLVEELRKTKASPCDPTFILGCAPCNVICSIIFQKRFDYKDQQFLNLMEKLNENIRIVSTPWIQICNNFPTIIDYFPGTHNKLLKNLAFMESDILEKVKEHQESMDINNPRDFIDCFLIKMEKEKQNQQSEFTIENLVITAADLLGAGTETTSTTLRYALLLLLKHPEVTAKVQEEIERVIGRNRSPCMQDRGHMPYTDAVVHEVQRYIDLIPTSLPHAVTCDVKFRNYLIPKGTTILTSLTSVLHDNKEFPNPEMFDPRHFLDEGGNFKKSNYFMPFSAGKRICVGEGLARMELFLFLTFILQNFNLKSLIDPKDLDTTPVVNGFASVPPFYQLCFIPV", "assay": "CYP isozymes activity assay, CYP2C19", "format": "in vitro ADME", "details": "microsomes, 0.1 µM", "experimental": "(§1) Pooled Human liver microsomes (Sigma-Aldrich; 0.25 mg/mL), 0.1 M phosphate buffer solution (pH 7.4), the five most commonly used substrate cocktails, such as 50 µM phenacetin (CYP1A2), 10 µM diclofenac […], 100 µM S-mephenytoin (CYP2C19) 5 µM dextromethorphan (CYP2D6), and 2.5 µM midazolam (CYP3A4), and compound 10 are pre-incubated at 37 °C for 5 min, then incubated with NADPH generation system solution for 15 min. To finish the enzymatic reaction, an acetonitrile solution (containing terfenadine) is added. The reaction tubes are centrifuged and the supernatant is withdrawn for analysis by LC–MS/MS."}, "[2]": {"molecular_target": "T2, CYP2C9 (Homo sapiens, UniProt P11712)", "T2 construct": "Pooled Human liver microsomes (Sigma-Aldrich; 0.25 mg/mL); tissue Sigma-Aldrich; host or cells: pooled human liver microsomes", "T2 sequence (P11712 whole entry)": "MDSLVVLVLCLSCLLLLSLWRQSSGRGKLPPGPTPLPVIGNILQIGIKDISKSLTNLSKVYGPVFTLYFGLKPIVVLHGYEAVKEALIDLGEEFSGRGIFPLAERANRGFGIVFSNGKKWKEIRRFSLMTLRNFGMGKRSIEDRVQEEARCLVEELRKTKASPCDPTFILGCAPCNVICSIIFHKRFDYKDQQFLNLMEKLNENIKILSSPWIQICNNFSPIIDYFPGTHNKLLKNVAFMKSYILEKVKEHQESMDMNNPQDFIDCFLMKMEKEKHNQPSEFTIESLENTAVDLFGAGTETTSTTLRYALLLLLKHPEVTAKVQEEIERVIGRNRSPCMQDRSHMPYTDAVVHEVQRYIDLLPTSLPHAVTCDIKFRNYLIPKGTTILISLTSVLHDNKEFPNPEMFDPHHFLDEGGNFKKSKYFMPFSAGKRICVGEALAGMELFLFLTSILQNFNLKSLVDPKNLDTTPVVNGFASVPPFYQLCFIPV", "assay": "CYP isozymes activity assay, CYP2C9", "format": "in vitro ADME", "details": "microsomes, 0.1 µM", "experimental": "as §1"}, "[3]": {"molecular_target": "T3, CYP3A4 (Homo sapiens, UniProt P08684)", "T3 construct": "Pooled Human liver microsomes (Sigma-Aldrich; 0.25 mg/mL); tissue Sigma-Aldrich; host or cells: pooled human liver microsomes", "T3 sequence (P08684 whole entry)": "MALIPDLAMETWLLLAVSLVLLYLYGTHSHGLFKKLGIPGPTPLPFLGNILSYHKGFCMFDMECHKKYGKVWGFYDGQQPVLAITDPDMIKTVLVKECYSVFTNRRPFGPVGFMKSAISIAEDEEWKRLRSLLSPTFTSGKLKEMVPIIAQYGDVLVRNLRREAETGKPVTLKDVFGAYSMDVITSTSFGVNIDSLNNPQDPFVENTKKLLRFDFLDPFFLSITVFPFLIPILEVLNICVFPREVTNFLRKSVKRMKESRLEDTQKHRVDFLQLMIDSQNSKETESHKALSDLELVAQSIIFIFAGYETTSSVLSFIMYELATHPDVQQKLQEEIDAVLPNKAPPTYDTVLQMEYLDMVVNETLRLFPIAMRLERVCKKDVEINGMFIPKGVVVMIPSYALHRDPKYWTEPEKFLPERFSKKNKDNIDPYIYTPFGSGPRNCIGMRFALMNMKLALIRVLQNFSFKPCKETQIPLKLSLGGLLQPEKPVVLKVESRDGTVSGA", "assay": "CYP isozymes activity assay, CYP3A4", "format": "in vitro ADME", "details": "microsomes, 0.1 µM", "experimental": "as §1"}, "[4]": {"tested_on": "human breast cancer MCF-7", "assay": "Cell viability MTT assay, MCF-7", "format": "cell-based", "details": "MCF7, MTT, 48 h, read-out: MCF-7 (GI50)", "experimental": "(§2) The human pancreatic cancer cell lines, PANC-1 and MiaPaCa-2, human lung cancer A549 cells, human breast cancer MCF-7, and human glioma U87 cells were obtained from the Korean cell line bank (Seoul, Korea). The cells were cultured in Dulbecco’s Modified Eagle Medium (DMEM; ThermoFisher Scientific, Waltham, MA) supplemented with 10% fetal bovine serum (FBS; Sigma-Aldrich) and 1% penicillin/streptomycin (ThermoFisher Scientific). The cells were cultured at 37 °C in an atmosphere containing 5% CO2.\n(§3) The potential cytotoxicity of compounds at different concentrations was evaluated using the MTT assay. Briefly, cancer cell lines were pre-incubated in 96-well plates with compounds for 48 h. Subsequently, MTT working solution (2 mg/mL in phosphate buffer solution) was added to each well and the plate was incubated for 4 h at 37 °C in an atmosphere containing 5% CO2. Then, the conditioned media were aspirated, and the formed formazan crystals in living cells were quantified using the microplate reader (Spectramax M2) at 540 nm. The concentrations that produce 50% cell growth inhibition (GI50) were calculated by curves constructed by the plot of cell survival by an assistant of PRISM software (GraphPad, San Diego, CA)."}, "[5]": {"assay": "in vitro", "format": "in vitro ADME, human", "experimental": "(§4) Human and rat plasma (Sigma-Aldrich) are incubated at 37 °C with test compounds. During the incubation, aliquots are withdrawn at 0, 30, 120 min time points and acetonitrile solution (containing chlorpropamide) is added. After vortexing, the aliquots are centrifuged and the supernatant is withdrawn for analysis by LC–MS/MS."}, "[6]": {"assay": "Human liver microsomal stability", "format": "in vitro ADME", "details": "microsomes, pH 7.4", "experimental": "(§5) To finish the reaction, an acetonitrile solution (involved in chlorpropamide) is added. The reaction tubes are centrifuged and the supernatant is withdrawn for analysis by LC–MS/MS."}, "[7]": {"tested_on": "human glioma U87 cells", "assay": "Cell viability MTT assay, U87", "format": "cell-based", "details": "U-87 MG, MTT, 48 h, read-out: U87 (GI50)", "experimental": "as §2, §3"}, "[8]": {"tested_on": "human pancreatic cancer MiaPaCa-2 cells", "assay": "Cell viability MTT assay, MiaPaCa-2", "format": "cell-based", "details": "MIA PaCa-2, MTT, 48 h, read-out: MiaPaCa-2 (GI50)", "experimental": "as §2, §3"}, "[9]": {"molecular_target": "T4, CYP1A2 (Homo sapiens, UniProt P05177)", "T4 construct": "Pooled Human liver microsomes (Sigma-Aldrich; 0.25 mg/mL); tissue Sigma-Aldrich; host or cells: pooled human liver microsomes", "T4 sequence (P05177 1-516)": "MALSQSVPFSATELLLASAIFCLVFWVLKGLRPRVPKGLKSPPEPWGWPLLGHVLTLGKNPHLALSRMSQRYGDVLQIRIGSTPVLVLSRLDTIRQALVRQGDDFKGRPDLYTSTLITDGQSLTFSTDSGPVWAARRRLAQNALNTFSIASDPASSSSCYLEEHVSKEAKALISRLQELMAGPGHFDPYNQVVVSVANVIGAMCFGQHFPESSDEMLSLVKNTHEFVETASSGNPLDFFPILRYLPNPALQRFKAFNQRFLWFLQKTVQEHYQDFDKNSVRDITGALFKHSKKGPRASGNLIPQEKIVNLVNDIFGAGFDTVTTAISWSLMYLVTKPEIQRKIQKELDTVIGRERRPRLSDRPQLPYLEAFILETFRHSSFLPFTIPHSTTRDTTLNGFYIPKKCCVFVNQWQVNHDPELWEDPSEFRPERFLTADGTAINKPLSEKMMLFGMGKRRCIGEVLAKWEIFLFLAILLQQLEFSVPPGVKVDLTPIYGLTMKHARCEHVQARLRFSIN", "assay": "CYP isozymes activity assay, CYP1A2", "format": "in vitro ADME", "details": "microsomes, 0.1 µM", "experimental": "as §1"}, "[10]": {"molecular_target": "T5, purified recombinant human LDHA protein (Homo sapiens, UniProt P00338)", "T5 construct": "purchased Abcam", "assay": "In vitro LDHA inhibitor activity (NADH fluorescence decrease)", "format": "biochemical", "experimental": "(§6) The in vitro evaluation of the LDHA inhibitor activities of the synthesized compounds was determined by the NADH intensity decrease through oxidation in a solution of HEPES-K^+, NADH, and pyruvate at a pH = 7.2. The NADH oxidation fluorescence intensity was measured using a spectrofluorometer at 340 nm excitation and 460 nm emission wavelengths, representing the NADH-specific fluorescence spectrum. Furthermore, the in vitro evaluation of the LDHB inhibitor activity was determined as a reverse reaction, which converts lactate to pyruvate by determining the amount of NAD^+ converted to NADH using the above-mentioned spectrophotometric experimental setting (Table 2). Based on this analysis, the half-maximal inhibitory concentration (IC50) of the synthesized compounds was obtained.\nIn vitro evaluation on LDHA inhibitor activity. LDHA activity assay was performed in accordance with previous studies[16],[18]. Briefly, the various concentrations of compounds were incubated with reaction buffer containing 20 mM HEPES-K^+, 20 μM NADH, 2 mM pyruvate, and 100 ng of purified recombinant human LDHA protein (Abcam, Cambridge, UK). The fluorescence of NADH, which has an excitation wavelength of 340 nm and an emission wavelength of 460 nm, was detected using a microplate spectrofluorometer (Spectramax M2; Molecular Devices, Sunnyvale, CA)."}, "[11]": {"tested_on": "human pancreatic cancer PANC-1 cells", "assay": "Cell viability MTT assay, PANC-1", "format": "cell-based", "details": "Homo sapiens, PANC-1; MTT, 48 h; read-out: PANC-1 (GI50)", "experimental": "as §2, §3"}, "[12]": {"molecular_target": "T6, CYP2D6 (Homo sapiens, UniProt P10635)", "T6 construct": "Pooled Human liver microsomes (Sigma-Aldrich; 0.25 mg/mL); tissue Sigma-Aldrich; host or cells: pooled human liver microsomes", "T6 sequence (P10635 whole entry)": "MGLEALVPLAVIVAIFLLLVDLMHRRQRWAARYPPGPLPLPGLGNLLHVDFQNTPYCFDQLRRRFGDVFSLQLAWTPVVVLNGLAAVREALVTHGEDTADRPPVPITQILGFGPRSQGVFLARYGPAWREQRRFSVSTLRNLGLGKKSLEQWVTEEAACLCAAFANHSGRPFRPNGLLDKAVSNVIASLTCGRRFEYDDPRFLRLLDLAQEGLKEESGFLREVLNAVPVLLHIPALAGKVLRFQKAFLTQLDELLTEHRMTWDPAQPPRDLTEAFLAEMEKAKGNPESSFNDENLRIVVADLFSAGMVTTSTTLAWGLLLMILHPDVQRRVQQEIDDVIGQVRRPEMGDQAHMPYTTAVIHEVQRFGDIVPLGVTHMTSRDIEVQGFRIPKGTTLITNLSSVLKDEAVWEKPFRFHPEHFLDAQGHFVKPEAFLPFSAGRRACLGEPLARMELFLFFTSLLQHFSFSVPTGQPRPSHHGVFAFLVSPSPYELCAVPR", "assay": "CYP isozymes activity assay, CYP2D6", "format": "in vitro ADME", "details": "microsomes, 0.1 µM", "experimental": "as §1"}, "[13]": {"assay": "in vitro", "format": "in vitro ADME", "details": "rat, microsomes, pH 7.4", "experimental": "as §5"}, "[14]": {"tested_on": "human lung cancer A549 cells", "assay": "Cell viability MTT assay, A549", "format": "cell-based", "details": "A549, MTT, 48 h, read-out: A549 (GI50)", "experimental": "as §2, §3"}, "[15]": {"assay": "in vitro", "format": "in vitro ADME, rat", "experimental": "as §4"}, "[16]": {"molecular_target": "T7, purified recombinant human LDHB protein (Homo sapiens, UniProt P07195)", "T7 construct": "purchased Abcam", "T7 sequence (P07195 whole entry)": "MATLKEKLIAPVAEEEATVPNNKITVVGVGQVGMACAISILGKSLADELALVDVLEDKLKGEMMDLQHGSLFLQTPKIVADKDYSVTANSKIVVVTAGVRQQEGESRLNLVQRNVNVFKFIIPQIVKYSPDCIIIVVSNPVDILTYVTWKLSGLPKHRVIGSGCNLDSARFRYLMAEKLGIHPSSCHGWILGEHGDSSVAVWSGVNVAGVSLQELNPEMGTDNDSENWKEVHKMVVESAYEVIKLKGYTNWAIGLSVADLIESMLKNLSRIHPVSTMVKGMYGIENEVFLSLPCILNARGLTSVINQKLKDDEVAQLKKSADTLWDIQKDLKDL", "assay": "In vitro LDHB activity assay (NAD+ converted to NADH)", "format": "biochemical", "details": "synthesized compounds; read-out: LDHB IC50", "experimental": "as §6\nIn vitro analysis was determined the amount of NAD^+ converted to NADH[33]. The assay mixture composed of 100 mM Tris–HCl buffer (pH 8.0), 200 mM sodium L-lactate, 2.5 mM NAD^+, and 100 ng of purified recombinant human LDHB protein (Abcam). The fluorescence intensity of NADH was measured using a spectrofluorometer (Spectramax M2) at 340 nm as excitation wavelength and 460 nm as emission wavelength which is the specific fluorescence of NADH."}},
  "note": "pIC50: −log10 of the molar value. Read-outs that look alike come from different tables or passages of the source.",
  "data": [
    {"smiles": "FC(F)(F)c1ccc(Sc2nc3ccccc3s2)cc1", "note": "[Compound 10]", "values": [
      {"measurement": "CYP2C19 isozyme activity (% of control activity)", "setting": "[1]", "result": "12.1 % of control activity"},
      {"measurement": "CYP2C9 isozyme activity (% of control activity)", "setting": "[2]", "result": "97.4 % of control activity"},
      {"measurement": "CYP3A4 isozyme activity (% of control activity)", "setting": "[3]", "result": "> 100 % of control activity"},
      {"measurement": "GI50", "setting": "[4]", "result": 61.4, "unit": "µM"},
      {"measurement": "plasma stability (in words)", "setting": "[5]", "result": "stable"},
      {"measurement": "remaining at 0.5 h", "setting": "[5]; human, plasma", "result": 98.1, "unit": "%"},
      {"measurement": "remaining at 2 h", "setting": "[5]; human, plasma", "result": 91.6, "unit": "%"},
      {"measurement": "remaining at 0.5 h, 1 µM", "setting": "[6]", "result": 9.5, "unit": "%"},
      {"measurement": "GI50", "setting": "[7]", "result": 343, "unit": "µM"},
      {"measurement": "GI50", "setting": "[8]", "result": 88.9, "unit": "µM"},
      {"measurement": "CYP1A2 isozyme activity (% of control activity)", "setting": "[9]", "result": "36.7 % of control activity"},
      {"measurement": "LDHB/LDHA", "setting": "[10]; ratio of LDHB IC50 to LDHA IC50 (selectivity)", "result": "> 21.18"},
      {"measurement": "pIC50", "setting": "[10]; synthesized compounds, read-out: LDHA IC50", "result": 4.33},
      {"measurement": "GI50", "setting": "[11]", "result": 12.2, "unit": "µM"},
      {"measurement": "CYP2D6 isozyme activity (% of control activity)", "setting": "[12]", "result": "95.1 % of control activity"},
      {"measurement": "remaining at 0.5 h, 1 µM", "setting": "[13]", "result": 5.2, "unit": "%"},
      {"measurement": "GI50", "setting": "[14]", "result": 56.5, "unit": "µM"},
      {"measurement": "plasma stability (in words)", "setting": "[15]", "result": "stable"},
      {"measurement": "remaining at 0.5 h", "setting": "[15]; rat, plasma", "result": 93.8, "unit": "%"},
      {"measurement": "remaining at 2 h", "setting": "[15]; rat, plasma", "result": 87.5, "unit": "%"},
      {"measurement": "pIC50", "setting": "[16]", "result": "< 3.00"}
    ]}
  ]
}
